Source: US10590113B2, “6-hydroxy-4-oxo-1,4-dihydropyrimidine-5-carboxamides as APJ agonists” (priority 2016, dated 2020)

Target: T1, human APJ receptor (Homo sapiens, UniProt P35414)
T1 construct: expressed in transfected cells; host or cells: HEK293
T1 sequence (P35414 1-380): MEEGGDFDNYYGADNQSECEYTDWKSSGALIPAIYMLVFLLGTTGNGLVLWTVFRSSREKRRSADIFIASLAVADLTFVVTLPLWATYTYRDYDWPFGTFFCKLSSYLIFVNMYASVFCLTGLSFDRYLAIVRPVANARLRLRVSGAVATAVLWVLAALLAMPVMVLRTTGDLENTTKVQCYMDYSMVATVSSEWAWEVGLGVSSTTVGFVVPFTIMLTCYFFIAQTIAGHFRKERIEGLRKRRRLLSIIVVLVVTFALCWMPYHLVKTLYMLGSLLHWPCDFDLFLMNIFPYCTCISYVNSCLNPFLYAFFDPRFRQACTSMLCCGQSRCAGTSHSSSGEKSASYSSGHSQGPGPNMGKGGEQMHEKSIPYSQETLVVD
Test: Intracellular cAMP Accumulation Assay (APJ hcAMP, HTRF)
Assay type: cell-based
Settings: human APJ, cAMP accumulation; potency range class; read-out: hAPJ cAMP EC50 Potency range
Method in brief: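 Stably transfected HEK293 cells (5,000/well) incubated 30 min at room temperature with serially diluted compound, […] and 2 μM forskolin. cAMP measured by HTRF after 60 min with detection reagents, quantified against a cAMP standard curve; EC50 from variable-slope sigmoidal fit of inhibition of forskolin-stimulated cAMP.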

| Compound | EC50 |
| --- | --- |
| CCc1cccc(CC)c1-n1c(-c2nc(C)cs2)nc(=O)c(C(=O)N2CCC(c3ncccc3F)C2)c1O (single isomer, unassigned) [Example 307, 1-(2,6-diethylphenyl)-5-[3-(3-fluoropyridin-2-yl)pyrrolidine-1-carbonyl]-6-hydroxy-2-(4-methyl-1,3-thiazol-2-yl)-1,4-dihydropyrimidin-4-one] | 0.01 to 10 nM |
| CCc1cccc(CC)c1-n1c(-c2cnn(CC)c2)nc(=O)c(C(=O)N2CCC(c3ccccc3F)C2)c1O (single isomer, unassigned) [Example 310, 1-(2,6-diethylphenyl)-2-(1-ethyl-1H-pyrazol-4-yl)-5-[3-(2-fluorophenyl)pyrrolidine-1-carbonyl]-6-hydroxy-1,4-dihydropyrimidin-4-one] | 0.01 to 10 nM |
| CC[C@@H](c1ccccc1)n1c(-c2nc(C)cs2)nc(=O)c(C(=O)N2CCC(c3ncc(F)cc3F)C2)c1O (single isomer, unassigned) [Example 321] | 0.01 to 10 nM |
| CC[C@@H](c1ccccc1)n1c(-c2nc(C)cs2)nc(=O)c(C(=O)N2CCC(c3ccc(F)cn3)C2)c1O (single isomer, unassigned) [Example 322] | 0.01 to 10 nM |
| CC[C@@H](c1ccccc1)n1c(-c2nc(C)cs2)nc(=O)c(C(=O)N2CCC(c3ncc(Cl)cc3F)C2)c1O (single isomer, unassigned) [Example 323] | 0.01 to 10 nM |
| CC[C@@H](c1ccccc1)n1c(-c2nc(C)cs2)nc(=O)c(C(=O)N2CCC(c3ccccc3F)C2)c1O (single isomer, unassigned) [Example 324] | 0.01 to 10 nM |
| CCn1ccc(-c2nc(=O)c(C(=O)N3CCC(c4ncc(Cl)cc4F)C3)c(O)n2[C@H](c2cc(F)cc(F)c2)C(C)C)n1 (single isomer, unassigned) [Example 326] | 0.01 to 10 nM |
| CCn1ccc(-c2nc(=O)c(C(=O)N3CCC(c4ncc(F)cc4F)C3)c(O)n2[C@H](c2cc(F)cc(F)c2)C(C)C)n1 (single isomer, unassigned) [Example 327] | 0.01 to 10 nM |
| CCCCc1nc(O)c(C(=O)N2CCC(c3ncc(F)cc3F)C2)c(=O)n1[C@@H](CC)c1ccccc1 (single isomer, unassigned) [Example 345] | 0.01 to 10 nM |
| CCCCc1nc(O)c(C(=O)N2CCC(c3ncc(Cl)cc3F)C2)c(=O)n1[C@@H](COC)c1ccccc1 (single isomer, unassigned) [Example 352] | 0.01 to 10 nM |
| CCOCc1nc(=O)c(C(=O)N2CCC(c3c(F)cccc3F)C2)c(O)n1-c1c(OC)cccc1OC (single isomer, unassigned) [Example 353, 5-[3-(2,6-difluorophenyl)pyrrolidine-1-carbonyl]-1-(2,6-dimethoxyphenyl)-2-(ethoxymethyl)-6-hydroxy-1,4-dihydropyrimidin-4-one] | 0.01 to 10 nM |
| CCOCc1nc(=O)c(C(=O)N2CCC(c3c(F)cccc3F)C2)c(O)n1-c1c(OC)cccc1OC (single isomer, unassigned) [Example 354, 5-[3-(2,6-difluorophenyl)pyrrolidine-1-carbonyl]-1-(2,6-dimethoxyphenyl)-2-(ethoxymethyl)-6-hydroxy-1,4-dihydropyrimidin-4-one] | 0.01 to 10 nM |
| CCCCc1nc(=O)c(C(=O)N2CCC(c3ncc(Cl)cc3F)C2)c(O)n1-c1c(OC)cccc1OC (single isomer, unassigned) [Example 356, 2-butyl-5-(3-(5-chloro-3-fluoropyridin-2-yl)pyrrolidine-1-carbonyl)-1-(2,6-dimethoxyphenyl)-6-hydroxypyrimidin-4(1H)-one] | 0.01 to 10 nM |
| CCCCc1nc(=O)c(C(=O)N2CCC(c3ncc(Cl)cc3F)C2)c(O)n1-c1c(OC)cccc1OC (single isomer, unassigned) [Example 357, 2-butyl-5-(3-(5-chloro-3-fluoropyridin-2-yl)pyrrolidine-1-carbonyl)-1-(2,6-dimethoxyphenyl)-6-hydroxypyrimidin-4(1H)-one] | 0.01 to 10 nM |

Now from value to molecule:

| EC50 | Compound |
| --- | --- |
| 0.01 to 10 nM | CCc1cccc(CC)c1-n1c(-c2csc(C)n2)nc(=O)c(C(=O)N2CCC(c3ncccc3F)C2)c1O (single isomer, unassigned) [Example 302, 1-(2,6-diethylphenyl)-5-[3-(3-fluoropyridin-2-yl)pyrrolidine-1-carbonyl]-6-hydroxy-2-(2-methyl-1,3-thiazol-4-yl)-1,4-dihydropyrimidin-4-one] |
| 0.01 to 10 nM | CCc1cccc(CC)c1-n1c(-c2nc(C)cs2)nc(=O)c(C(=O)N2CCC(c3ncc(Cl)cc3F)C2)c1O (single isomer, unassigned) [Example 306, 5-[3-(5-chloro-3-fluoropyridin-2-yl)pyrrolidine-1-carbonyl]-1-(2,6-diethylphenyl)-6-hydroxy-2-(4-methyl-1,3-thiazol-2-yl)-1,4-dihydropyrimidin-4-one] |
| 0.01 to 10 nM | CCc1cccc(CC)c1-n1c(-c2ccn(CC)n2)nc(=O)c(C(=O)N2CCC(c3ncccc3F)C2)c1O (single isomer, unassigned) [Example 308, 1-(2,6-diethylphenyl)-2-(1-ethyl-1H-pyrazol-3-yl)-5-[3-(3-fluoropyridin-2-yl)pyrrolidine-1-carbonyl]-6-hydroxy-1,4-dihydropyrimidin-4-one] |
| 0.01 to 10 nM | CCc1cccc(CC)c1-n1c(-c2ccn(CC)n2)nc(=O)c(C(=O)N2CCC(c3ncc(F)cc3F)C2)c1O (single isomer, unassigned) [Example 309, 1-(2,6-diethylphenyl)-5-[3-(3,5-difluoropyridin-2-yl)pyrrolidine-1-carbonyl]-2-(1-ethyl-1H-pyrazol-3-yl)-6-hydroxy-1,4-dihydropyrimidin-4-one] |
| 0.01 to 10 nM | CCc1cccc(CC)c1-n1c(-c2ccn(CC)n2)nc(=O)c(C(=O)N2CCC(c3ncc(Cl)cc3F)C2)c1O (single isomer, unassigned) [Example 311, 5-[3-(5-chloro-3-fluoropyridin-2-yl)pyrrolidine-1-carbonyl]-1-(2,6-diethylphenyl)-2-(1-ethyl-1H-pyrazol-3-yl)-6-hydroxy-1,4-dihydropyrimidin-4-one] |
| 0.01 to 10 nM | CCc1cccc(CC)c1-n1c(-c2nc(C)cs2)nc(=O)c(C(=O)N2CCC(c3ncc(Cl)cc3F)C2)c1O (single isomer, unassigned) [Example 312, 5-[3-(5-chloro-3-fluoropyridin-2-yl)pyrrolidine-1-carbonyl]-1-(2,6-diethylphenyl)-6-hydroxy-2-(4-methyl-1,3-thiazol-2-yl)-1,4-dihydropyrimidin-4-one] |
| 0.01 to 10 nM | CCc1cccc(CC)c1-n1c(-c2cnn(CC)c2)nc(=O)c(C(=O)N2CCC(c3ncc(Cl)cc3F)C2)c1O (single isomer, unassigned) [Example 313, 5-[3-(5-chloro-3-fluoropyridin-2-yl)pyrrolidine-1-carbonyl]-1-(2,6-diethylphenyl)-2-(1-ethyl-1H-pyrazol-4-yl)-6-hydroxy-1,4-dihydropyrimidin-4-one] |
| 0.01 to 10 nM | CCc1cccc(CC)c1-n1c(-c2cnn(CC)c2)nc(=O)c(C(=O)N2CCC(c3ncc(F)cc3F)C2)c1O (single isomer, unassigned) [Example 315, 1-(2,6-diethylphenyl)-5-[3-(3,5-difluoropyridin-2-yl)pyrrolidine-1-carbonyl]-2-(1-ethyl-1H-pyrazol-4-yl)-6-hydroxy-1,4-dihydropyrimidin-4-one] |
| 0.01 to 10 nM | CCc1cccc(CC)c1-n1c(-c2ccn(CC(C)C)n2)nc(=O)c(C(=O)N2CCC(c3ccc(F)cn3)C2)c1O (single isomer, unassigned) [Example 318, 1-(2,6-diethylphenyl)-5-[3-(5-fluoropyridin-2-yl)pyrrolidine-1-carbonyl]-6-hydroxy-2-[1-(2-methylpropyl)-1H-pyrazol-3-yl]-1,4-dihydropyrimidin-4-one] |
| 0.01 to 10 nM | CCc1cccc(CC)c1-n1c(-c2ccn(C3CC3)n2)nc(=O)c(C(=O)N2CCC(c3ncccc3F)C2)c1O (single isomer, unassigned) [Example 319, 2-(1-cyclopropyl-1H-pyrazol-3-yl)-1-(2,6-diethylphenyl)-5[3(3-fluoropyridin-2-yl)pyrrolidine-1-carbonyl]-6-hydroxy-1,4-dihydropyrimidin-4-one] |
| 10 to 100 nM | CCc1cccc(CC)c1-n1c(-c2ccn(CC(C)C)n2)nc(=O)c(C(=O)N2CCC(c3ncc(F)cc3F)C2)c1O (single isomer, unassigned) [Example 320, 1-(2,6-diethylphenyl)-5-[3-(3,5-difluoropyridin-2-yl)pyrrolidine-1-carbonyl]-6-hydroxy-2-[1-(2-methylpropyl)-1H-pyrazol-3-yl]-1,4-dihydropyrimidin-4-one] |
| 0.01 to 10 nM | CCc1cccc(CC)c1-n1c(-c2ccn(C3CC3)n2)nc(=O)c(C(=O)N2CCC(c3ncc(F)cc3F)C2)c1O (single isomer, unassigned) [Example 325, 2-(1-cyclopropyl-1H-pyrazol-3-yl)-1-(2,6-diethylphenyl)-5-[3-(3,5-difluoropyridin-2-yl)pyrrolidine-1-carbonyl]-6-hydroxy-1,4-dihydropyrimidin-4-one] |
| 0.01 to 10 nM | CCc1cccc(CC)c1-n1c(-c2ccn(C3CC3)n2)nc(=O)c(C(=O)N2CCC(c3ccc(F)cn3)C2)c1O (single isomer, unassigned) [Example 328, 2-(1-cyclopropyl-1H-pyrazol-3-yl)-1-(2,6-diethylphenyl)-5-[3-(5-fluoropyridin-2-yl)pyrrolidine-1-carbonyl]-6-hydroxy-1,4-dihydropyrimidin-4-one] |
